We go through 1 compound from patent publication US12570606B2, “Myeloperoxidase imaging agents” (The General Hospital Corporation, priority 2016, dated 2026).

Read-outs that look alike come from different tables or passages of the source.

Data set [1] has as its target T1, MPO (Homo sapiens, UniProt P05164).
T1 sequence (P05164 49-745): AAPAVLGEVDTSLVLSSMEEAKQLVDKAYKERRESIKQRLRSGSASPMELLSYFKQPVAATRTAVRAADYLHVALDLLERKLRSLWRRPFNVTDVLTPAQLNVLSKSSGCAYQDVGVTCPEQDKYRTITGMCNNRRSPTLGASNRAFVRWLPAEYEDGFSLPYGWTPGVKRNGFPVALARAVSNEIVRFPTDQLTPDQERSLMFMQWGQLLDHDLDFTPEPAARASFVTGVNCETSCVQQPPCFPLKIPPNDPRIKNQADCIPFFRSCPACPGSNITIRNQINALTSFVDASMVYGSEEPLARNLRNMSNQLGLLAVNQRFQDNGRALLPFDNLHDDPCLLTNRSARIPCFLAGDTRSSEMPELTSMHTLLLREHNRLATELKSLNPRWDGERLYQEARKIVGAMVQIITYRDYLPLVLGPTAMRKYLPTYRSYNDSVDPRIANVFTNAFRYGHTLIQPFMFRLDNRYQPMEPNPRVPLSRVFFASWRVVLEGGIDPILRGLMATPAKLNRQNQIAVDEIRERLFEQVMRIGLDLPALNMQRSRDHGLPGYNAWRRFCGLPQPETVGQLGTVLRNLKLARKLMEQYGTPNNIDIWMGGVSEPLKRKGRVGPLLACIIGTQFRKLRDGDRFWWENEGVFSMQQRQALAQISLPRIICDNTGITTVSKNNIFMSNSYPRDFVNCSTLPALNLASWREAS
Nature of the data set: MPO-PET matrigel implantation imaging in mice. Format: in vivo, mouse. The method, then:
300 μL of 1:1 mixture of matrigel and minimal essential medium (MEM) containing GOX and/or different concentrations of MPO (0, 15 μL, 30 μL) was injected subcutaneously into the ventral aspect of the thighs of the mouse. After 30 min, 300-600 μCi of MPO Compound 9 was injected intravenously. After 2 h, the mice were scanned using PET scanning.
To validate the efficacy of the MPO PET agents for in vivo applications, matrigel implantation experiments were performed by embedding MPO in matrigel along with glucose oxidase (GOX) as H2O2 donor. Matrigel is a gelatinous protein mixture that is liquid at 0° C. but forms a gel at body temperature while remaining diffusible to molecules from the bloodstream when injected into living animals (see e.g., Chen et al, Radiology, 2006, 240(2):473-481). The MPO/matrigel mixtures were injected subcutaneously to the thighs of the mice followed by injection of the MPO PET tracers 30 min later. […] The signal of MPO side was around 1.7 fold higher compared to that of control side.
To verify the specificity of Compound 9 over MPO, different concentrations of MPO (0, 15 μL, 30 μL) were embedded in matrigel for the implantation experiments.

A short description of data set [2]: Pharmacokinetics and biodistribution after i.v. injection. The note with it: for half-life: C57BL/6, mouse, blood, iv, i.v. tail vein. Type of data set: in vivo, wild-type C57BL/6 mice. The method, then: The pharmacokinetic and biodistribution of Compound 9 was evaluated in wild-type C57BL/6 mice. After systemic intravenous (i.v.) injection via the tail vein, blood samples were collected to determine clearance rate of Compound 9 from the blood. The major organs of the mouse were harvested and the radioactivity was measured.

The nature of data set [3]: Dynamic PET study of Compound 9 over 3 hours. The note with it: dynamic study over 3 hours. Format: in vivo, mouse.
The target in data set [4] is T2, MPO (Mus musculus, UniProt P11247).
T2 sequence (P11247 139-718): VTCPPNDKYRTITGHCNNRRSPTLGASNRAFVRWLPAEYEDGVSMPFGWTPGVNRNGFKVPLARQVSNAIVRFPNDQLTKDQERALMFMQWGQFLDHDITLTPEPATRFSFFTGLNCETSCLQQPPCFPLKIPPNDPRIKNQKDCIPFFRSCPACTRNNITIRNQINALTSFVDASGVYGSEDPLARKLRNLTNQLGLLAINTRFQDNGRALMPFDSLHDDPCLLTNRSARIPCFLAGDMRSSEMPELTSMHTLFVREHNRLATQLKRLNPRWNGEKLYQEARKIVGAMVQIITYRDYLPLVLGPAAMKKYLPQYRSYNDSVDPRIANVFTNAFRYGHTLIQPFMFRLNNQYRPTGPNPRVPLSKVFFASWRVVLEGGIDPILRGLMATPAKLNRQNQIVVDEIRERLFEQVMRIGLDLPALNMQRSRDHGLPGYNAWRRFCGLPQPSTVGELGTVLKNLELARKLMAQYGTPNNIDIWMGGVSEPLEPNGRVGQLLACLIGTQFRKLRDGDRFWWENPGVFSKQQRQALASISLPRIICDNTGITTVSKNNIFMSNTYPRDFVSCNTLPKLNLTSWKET
Nature of the data set: CFA paw inflammation PET imaging and treatment by MPO inhibitor PF-1355. The note with it: forepaw, 24 h after CFA emulsion, scan 2 h after tracer. Also on record: from tissue; host or cells: inflamed forepaw of living mice (CFA). Format: in vivo. The method, then:
Each pair contained one treated and one untreated, number of pairs, n=3. The 1/1 emulsion of CFA/PBS (40 μL) was injected subcutaneously on the dorsal side of one forepaw under isoflurane anesthesia, and PBS (40 μL) was injected on the other forepaw as control. After 1 h, the treated group was given PF-1355 (50 mg/kg) by gavage, then treated every 6 h for another 3 times, and the control group was treated with vehicle (10 mL/kg) accordingly. After 24 h, 300-600 uCi of Compound 9 was injected intravenously. After another 2 h, each pair of the mice was scanned side by side.
After validating the efficacy of the MPO Compound 9 in matrigel experiments, the specificity of the agent in inflammation was investigated. Complete Freund's Adjuvant (CFA) or its emulsion can cause inflammation when injected subcutaneously to the animal. The CFA emulsion was injected to one dorsal side of the forepaw of the mouse and the other side was injected with PBS. After 24 h, Compound 9 was injected intravenously and scanned 2 h after injection. […] To further verify the specificity of the MPO Compound 9, the mice were treated with MPO inhibitor PF-1355 1 h after CFA emulsion injection and continuously every 6 h afterwards for 4 times before injecting the Compound 9. The control group was treated with vehicle after CFA injection. Then each pair of the mice from treated and untreated groups were scanned.

The half-life is the time in which the quantity being followed falls by half. On to `O=C(Cc1c[nH]c2ccc(O)cc12)NC(Cc1c[nH]c2ccc(O)cc12)C(=O)NCCOCCOCC[18F]` (stereo not drawn) [Compound 9], for which the “PET signal versus MPO concentration” value on MPO [1] (MPO 0, 15 μL, 30 μL embedded in matrigel) is given as “linear increase in signal”. For the same compound, the “Background, organ uptake and defluorination” value at MPO [1] (matrigel PET imaging in mice) is “high ratio of signal to background, lower liver and heart uptake and no observed defluorination”. Further, on MPO [1] (matrigel with GOX+MPO vs GOX only in mouse thighs, scan 2 h after i.v. tracer), the “PET signal of MPO side compared to control side” value is “around 1.7 fold”. Besides, the half-life in data set [2] (two-phase exponential decay model, read-out: Blood short (fast) half-life) stood at 0.26 min; in data set [2] (two-phase exponential decay model, read-out: Blood slow half-life) it was 4.66 min. The “Biodistribution of radioactivity in organs” value in data set [2] (major organs harvested after i.v. injection) is “the liver and kidney showed the highest radioactivity, followed by bone and lymph”. The “Share of clearance accounted for by the fast half-life” value in data set [2] (two-phase exponential decay model) turned out to be 94.7%. In data set [3], the “Blood-brain barrier crossing (brain data)” value is “can cross the blood-brain barrier”. In addition, the “PET signal of CFA side versus vehicle (PBS) injected side” value on MPO [4] is 4 fold.
